Assay results from ChEMBL document CHEMBL1137096, “Optimization and metabolic stabilization of a class of nonsteroidal glucocorticoid modulators” (Bioorg Med Chem Lett, 2004).

Experiment: in vivo
Conditions: rat

bioavailability: 12%
SMILES: Cc1c(NS(C)(=O)=O)cccc1N(Cc1ccccc1)Cc1ccc(Oc2cccc(OCCCC(=O)NCCCC(=O)O)c2)cc1
